# “Also recorded” adds a separate entry of the source.
# Legend:
# [1] = tested on: epithelial prostate carcinoma cells; conditions: cited from earlier work
# H929-60 cells [2] = assay: Cross-resistance of H929-60 cells to standard myeloma agents (annexin V FITC/PI, IC50); assay type: cell-based, human; conditions: 24 hours; p>0.05
# Experimental: FIG. 19. H929-60 cells are not resistant to standard myeloma therapies. H929 and H929-60 cells were treated with increasing concentrations of melphalan or Velcade for 24 hours. After 24 hours, cells were stained with annexin V FITC/P1 for 45 minutes and acquired on FACScan. IC50 values were determined by linear regressions. […] Shown in the table of FIG. 19 is the mean and standard deviations of three independent experiments.
# H929-60 cells [3] = assay: HS-5 stroma co-culture model of drug resistance, H929-60 cells; assay type: cell-based, human
# Experimental: FIGS. 15A-15C. […] FIG. 15A: H929 and H929-60 pre-incubated with CMFDA dye were adhered to 10,000 HS-5 cells for 2 hours. After 2 hours unadherent cells were removed and the fluorescence intensity was measured on a fluorescent plate reader. FIGS. 15B and 15C: H929 and H929-60 cells were adhered to HS-5 GFP cells for 24 hours. After 24 hours samples were treated with 15 μM melphalan or 16 nM velcade for 24 hours. Cell death was analyzed using a FACScalibur with the GFP expressing HS-5 cells being excluded from the analysis. In FIGS. 15A-15C, a representative of three independent experiments was shown. (*=p<0.05, n=9 or#=p>0.05, n=9 Students t-test).
# The inventors reasoned that acquisition of resistance towards HYD1, which correlated with reduced functional binding to fibronectin, VCAM-1, and HS-5 stromal cells, would likely result in a compromised CAMDR phenotype. To test this premise, the inventors utilized the HS-5 co-culture model of drug resistance. H929 and the HYD1 resistant variant H929-60 cells were treated with either melphalan or velcade in the presence or absence of HS-5/GFP bone marrow stromal cells. As shown in FIGS. 15B and 15C, the HYD1 resistant cell line was not resistant in the co-culture bone marrow stroma model to melphalan or velcade, respectively.
# MM cells = assay: Characterisation of HYD1-induced cell death in MM cells (apoptosis markers, autophagy, NAC protection); assay type: cell-based
# H929-60 cells [4] = assay: FAM-HYD1 binding to cells by FACS, H929-60 cells; assay type: cell-based, human
# Experimental: (§1) FIGS. 18A, 18B-1, 18B-2, and 18B-3. […] FIG. 18A: H929 and H929-60 cells (4×10^5 cells/ml) were incubated with FAM-HYD1 (6.25, 12.5 μg/ml) on ice for 15 minutes. FACS analysis was used to determine the geometric mean of fluorescence of FAM-HYD1 bound to H929 and H929-60 cells. A representative of three independent experiments is shown. A student's t-test was performed to determine significance (* denotes p<0.05). FIGS. 18B-1, 18B-2, and 18B-3: When the dose of FAM-HYD1 was increased to 12.5 μg/ml FAM-HYD1 binding to plasma membrane was detected in the resistant cell line as determine by confocal microscopy.
# H929 cells = assay: Confocal microscopy of FAM-HYD1 binding, H929 cells; assay type: cell-based, human; conditions: 6.25 μg/ml FAM-HYD1, 10 minutes
# Experimental: FIGS. 11A-11E. […] FIG. 11B: Loss of mitochondrial membrane […] was determined using DiOC6 staining following 2 hours of HYD1 treatment in H929 and H929-60 (* denotes p<0.05 n=9, Student's t-test). FIG. 11C: ATP levels were determined in the H929 and H929-60 cell lines following 6 hours of HYD1 (50 ug/ml) treatment. (* denotes p<0.05 and # denotes p>0.05, n=9, Student's t-test). FIGS. 11D and 11E: H929 cell (FIG. 11D) and H929-60 cells (FIG. 11E) were stained with Alexa Fluor 594 wheat germ agglutinin (WGA) and Hoechst 33342 for 30 minutes. 6.25 μg/ml FAM-HYD1 was added 10 minutes before images were taken. The experiment was repeated 3 independent times and shown is a representative experiment.
# (§2) To assess whether (a) HYD1 bound the cell surface and (b) whether binding of HYD1 was reduced in the resistant cell line FAM-HYD1 was used to image peptide binding in the parental and resistant cell line by confocal microscopy. A 35 mm glass bottom microwell dishes (Mattek cultureware, Ashland, Mass.) were plated with 10 uL Cell-tak (BD biosciences) per manufacture's instructions. Media containing 1 uM Alexa Fluor 594 wheat germ agglutinin (WGA) (Invitrogen) and 20 uM Hoechst 33342 (Invitrogen) was placed back in the plates and the samples were incubated for 30 minutes. After 30 minutes, the cells were washed and treated with media containing 6.25 μg/ml FAM conjugated HYD1 for 10 minutes. […]
# H929-60 cells [5] = assay: Confocal microscopy of FAM-HYD1 binding, H929-60 cells; assay type: cell-based, human; conditions: 12.5 μg/ml FAM-HYD1, confocal microscopy
# Experimental: as §1, §2
# U226 cells = assay: Combination cytotoxicity assay with HYD1 in U226 cells; assay type: cell-based; conditions: in vitro
# Description: FIG. 8. Table of combination index (CI) summary for combinations of HYD1 and SAHA, etoposide, arsenic, Vel, or doxorubicin in U226 cells.
# [6] = target: human CD44 ectodomain (human) (UniProt P16070); assay: SPR; experiment 12/05
# [7] = target: human CD44 ectodomain (human) (UniProt P16070); assay: SPR; experiment 12/09
# [8] = target: human CD44 ectodomain (human) (UniProt P16070); assay: SPR; experiment 11/29
# [9] = target: human CD44 ectodomain (human) (UniProt P16070); assay: SPR; experiment 12/05 LF
# recombinant CD44 = target: T1, recombinant CD44 (Homo sapiens, UniProt P16070); assay: Direct ELISA, recombinant CD44 binding to immobilized biotin-HYD1; conditions: NeutrAvidin coated 96-well plates
# T1 construct: purchased Abnova
# Experimental: The pull down assay was directly coupled with an unbiased Mass-Spec analysis to identify HYD1 binding partners. […] NeutrAvidin beads were used to reduce non-specific binding. […] The binding experiment was repeated using 300 ug of membrane extract. […] The inventors next determined whether α4 integrin could be detected by western blot analysis. […] To determine whether CD44 was indeed a direct binding partner of CD44 the inventors used recombinant CD44 and an ELISA as a readout of binding. The recombinant CD44 protein (purchased from Abnova) corresponds to Isoform 4 on Swiss Prot. The amino acid sequence is missing 224-266 and 223 is substituted S for T relative to the longest CD44 variant referred to as epican.
# CD44 = assay: Biotin-HYD1 pull-down assay (Mass-Spec, Western blot), CD44 in H929 membrane extract; assay type: binding, human; conditions: NeutrAvidin beads
# Experimental: The first lane is 30 μg of membrane extract only. CD44 was detected by western blot analysis using a pan-CD44 antibody.
# Samples were spun at 15000 XG for minutes at 4 degrees and the supernatant was removed and membranes were pelleted at 100,000Xg for 15 minutes. Membrane pellets were solubilized in AP buffer containing 0.2% NP40 and protein was quantified using BCA reagents (Pierce, Rockford, Ill.). […] After one hour, the beads were washed twice in AP buffer and 50 ug of membrane extracts were added to a total volume of 500 μl and incubated with beads overnight at 4 degrees. The beads were washed five times in AP buffer containing 0.2% NP40 and samples were suspended in SDS-PAGE sample buffer and bound proteins were resolved by SDSPAGE.
# NeutrAvidin beads were used to reduce non-specific binding. […] The binding experiment was repeated using 300 ug of membrane extract. […] The inventors next determined whether α4 integrin could be detected by western blot analysis. […] To determine whether CD44 was indeed a direct binding partner of CD44 the inventors used recombinant CD44 and an ELISA as a readout of binding. The recombinant CD44 protein (purchased from Abnova) corresponds to Isoform 4 on Swiss Prot. The amino acid sequence is missing 224-266 and 223 is substituted S for T relative to the longest CD44 variant referred to as epican.
# [10] = tested on: CD34+ hematopoietic progenitor cells; assay: Colony forming assay, normal CD34+ hematopoietic progenitor cells; assay type: cell-based; conditions: HYD1 12.5 and 50 μg/ml for 2 hrs; colonies counted day 12
# Experimental: (§3) CD34^+ hematopoietic progenitor cells were isolated from peripheral blood and treated for 2 hrs with HYD1 (12.5 and 50 μg/ml) and then plated in a methylcellulose media supplemented with growth factors supporting myeloid and erythroid colonies. Colonies were counted on day 12 post-plating. […] In addition, the inventors evaluated the toxicity of HYD1 in normal peripheral blood mononuclear cells (PBMC).
# H929 engrafted tumor = assay: SCID-hu in vivo model, H929 engrafted tumor; conditions: 8 mg/kg i.p. daily for 21 days
# Experimental: The SCID-hu model consists of implanting human fetal bone into the mammary mouse fat pad of SCID mice. The myeloma cells are subsequently injected directly into the bone and myeloma cells will engraft only in the area of the human bone. Human paraprotein can be measured in the mouse sera and levels represent a good marker for evaluating tumor burden and response to chemotherapy. Circulating kappa levels were measured on day 28 (baseline reading before peptide treatment), 35, 42 and 49 by ELISA, and tumor burden was determined by calculating the kappa levels on day X divided by the baseline kappa levels recorded on day 28 for each mouse. Shown in FIG. 2A is the antitumor response of H929 engrafted tumor when mice were given 8 mg/kg intraperitoneal (i.p.) injections daily for 21 days starting on day 28. […] Mice were humanely euthanized at […] as several control mice had tumor protruding from the bone implant. […] The inventors anticipate that because HYD1 induces cell death independent of apoptosis and blocks cell adhesion mediated drug resistance to standard therapy that the most dramatic in vivo activity will be realized when combined with standard therapy.
# [11] = tested on: peripheral blood mononuclear cells (PBMC); assay: Cell death in normal peripheral blood mononuclear cells; assay type: cell-based; conditions: six hours treatment, up to doses of 50 μg/ml
# Experimental: as §3
# human CD44 ectodomain (human), sequence (P16070 21-649): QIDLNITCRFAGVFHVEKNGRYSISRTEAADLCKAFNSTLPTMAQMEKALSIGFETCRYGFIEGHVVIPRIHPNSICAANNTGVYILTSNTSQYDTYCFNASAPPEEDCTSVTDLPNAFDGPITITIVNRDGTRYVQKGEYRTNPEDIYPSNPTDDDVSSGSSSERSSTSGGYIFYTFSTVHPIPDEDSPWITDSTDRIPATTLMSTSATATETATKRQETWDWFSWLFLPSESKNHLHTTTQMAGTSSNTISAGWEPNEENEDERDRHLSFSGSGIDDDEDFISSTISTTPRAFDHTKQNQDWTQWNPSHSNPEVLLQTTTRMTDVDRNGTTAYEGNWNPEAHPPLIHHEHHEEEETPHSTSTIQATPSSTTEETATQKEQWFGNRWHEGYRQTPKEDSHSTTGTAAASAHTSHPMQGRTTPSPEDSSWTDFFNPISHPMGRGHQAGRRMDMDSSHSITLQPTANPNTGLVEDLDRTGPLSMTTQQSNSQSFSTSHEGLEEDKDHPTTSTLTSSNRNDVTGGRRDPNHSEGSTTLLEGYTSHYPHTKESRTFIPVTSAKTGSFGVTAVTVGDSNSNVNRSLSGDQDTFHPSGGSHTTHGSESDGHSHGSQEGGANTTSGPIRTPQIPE
# T1 sequence (P16070 21-699 isoform P16070-4): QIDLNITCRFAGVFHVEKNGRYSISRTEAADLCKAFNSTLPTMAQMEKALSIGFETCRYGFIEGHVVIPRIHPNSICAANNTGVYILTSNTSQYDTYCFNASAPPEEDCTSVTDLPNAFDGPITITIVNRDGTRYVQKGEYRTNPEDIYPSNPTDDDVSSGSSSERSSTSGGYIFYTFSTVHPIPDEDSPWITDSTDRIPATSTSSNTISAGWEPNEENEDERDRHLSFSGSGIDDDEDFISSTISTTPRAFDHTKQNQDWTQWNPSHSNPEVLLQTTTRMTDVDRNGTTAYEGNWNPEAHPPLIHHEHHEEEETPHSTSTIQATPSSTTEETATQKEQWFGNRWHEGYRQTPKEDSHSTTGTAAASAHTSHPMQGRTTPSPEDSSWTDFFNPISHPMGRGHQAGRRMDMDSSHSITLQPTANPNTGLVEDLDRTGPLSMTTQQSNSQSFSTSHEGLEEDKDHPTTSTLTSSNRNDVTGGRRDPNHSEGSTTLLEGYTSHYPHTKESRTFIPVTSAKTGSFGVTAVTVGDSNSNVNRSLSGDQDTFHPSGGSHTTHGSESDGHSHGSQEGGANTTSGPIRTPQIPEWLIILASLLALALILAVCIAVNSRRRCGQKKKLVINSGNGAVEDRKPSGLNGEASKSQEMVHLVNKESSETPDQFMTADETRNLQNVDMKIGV
molecule,measurement,setting,value
"WIKSMKIVKG (HYD1 variant) [HYD1S, a scrambled derivative of HYD1]","inhibition of cell adhesion to extracellular matrixes (laminin 5, laminin 332, collagen, fibronectin)",[1],not to inhibit cell adhesion
O=C1c2c(O)ccc(O)c2C(=O)c2c(NCCNCCO)ccc(NCCNCCO)c21 [mitoxantrone],"IC50 values, H929-60 compared to parental H929 (cross-resistance)",H929-60 cells [2],not resistant
CC(C)C[C@H](NC(=O)[C@H](Cc1ccccc1)NC(=O)c1cnccn1)B(O)O [Velcade],"velcade induced cell death in HS-5 co-culture, H929-60",H929-60 cells [3]; 16 nM velcade for 24 hours,not resistant
same,"IC50 values, H929-60 compared to parental H929 (cross-resistance)",H929-60 cells [2],not resistant; also recorded: not deemed to be significant
CC(=O)N[C@@H](CS)C(=O)O [N-acetyl-L-cysteine],protection of MM cells from HYD1-induced death,MM cells,partially protects
FAM-kikmviswkg [FAM-HYD1],reduction in FAM-HYD1 binding relative to the parental cell line,"H929-60 cells [4]; 6.25 ug/ml FAM-HYD1, FACS",2.7 fold
same,"FAM-HYD1 binding to the cell surface, H929-60 compared to H929","H929-60 cells [4]; 6.25, 12.5 μg/ml, on ice 15 minutes",reduced binding; also recorded: decreased FAM-HYD1 binding
same,"localization of FAM-HYD1, H929",H929 cells,localizes to the plasma membrane
same,"FAM-HYD1 binding to plasma membrane, H929-60",H929-60 cells [5],detected
COc1cccc2c1C(=O)c1c(O)c3c(c(O)c1C2=O)C[C@@](O)(C(=O)CO)C[C@@H]3O[C@H]1C[C@H](N)[C@H](O)[C@H](C)O1 [Doxorubicin],synergy in combination with HYD1 (combination index),U226 cells,greatest levels of synergy; also recorded: most synergistic
HYD1,Kd,[6],22.6 nM
same,Kd,[7],40.9 nM
same,Kd,[8],40.2 nM
same,Kd,[9],26.7 nM
O=C(O)CCCC[C@@H]1SC[C@@H]2NC(=O)N[C@@H]21 [biotin],binding of recombinant CD44 (ELISA),recombinant CD44,relatively no binding
same,interaction with CD44 (pull-down),CD44,not
N[C@@H](Cc1ccc(N(CCCl)CCCl)cc1)C(=O)O [melphalan],"melphalan induced cell death in HS-5 co-culture, H929-60",H929-60 cells [3]; 15 μM melphalan for 24 hours,not resistant
same,"IC50 values, H929-60 compared to parental H929 (cross-resistance)",H929-60 cells [2],not resistant; also recorded: not deemed to be significant
CC[C@@H](C)[C@@H](NC(=O)[C@H](N)CCCCN)C(=O)N[C@H](CCCCN)C(=O)N[C@H](CCSC)C(=O)N[C@@H](C(=O)N[C@@H](C(=O)N[C@H](CO)C(=O)N[C@H](Cc1c[nH]c2ccccc12)C(=O)N[C@H](CCCCN)C(=O)NCC(=O)O)[C@H](C)CC)C(C)C [HYD1],colony formation of normal CD34+ cells,[10],did not inhibit colony formation; also recorded: did not inhibit differentiation or colony formation
same,overt toxicity or weight loss,H929 engrafted tumor,no overt toxicity or weight loss
same,cell death in PBMC,[11],did not induce cell death; also recorded: not sensitive

# Source: patent US20140080762A1, “HYD1 PEPTIDES FOR RELAPSED CANCER” (H. LEE MOFFITT CANCER CENTER AND RESEARCH INSTITUTE, INC., priority 2011, published 2014)
